# Results from PMC7274485, “A symbiotic bacterium of shipworms produces a compound with broad spectrum anti-apicomplexan activity” (PLoS Pathogens, 2020).
# Experiments:
# T. gondii ME49 = assay: Length of treatment needed to kill intracellular T. gondii (compound wash-off, luciferase 72 hours later); format: cell-based, Toxoplasma gondii; details: 30 nM trtE, ME49 in HFF, treated 0.5 to 4 hours, washed off, growth 72 hours after treatment
# Procedure: To test this hypothesis, we infected HFF cells with luciferase-expressing T. gondii ME49 for 24 hours, then treated infected cells with trtE for 30 minutes to 4 hours. The compound was then washed off the infected cells, and parasite growth was quantified 3 days after the removal of the compound. Parasites treated for at least 2 hours were killed by trtE (Fig 2E).
# T. gondii parasite lines were maintained by passage in HFFs as previously described. To determine the effect of trtE on intracellular parasites, 96 well plates containing confluent HFFs were infected with T. gondii strain ME49 modified to express green fluorescent protein (GFP) and luciferase (Luc), generated as described or T. gondii RH strain GFP/Luc (a kind gift from Dr. Jeroen Saeij, UC Davis). […] Growth was monitored by luciferase expression using Bright-glo Luciferase assay system (Promega Corp., Madison, WI). To determine the length of treatment needed to kill intracellular parasites, trtE was added to infected cells and then the compound removed 0.5, 1, 2 and 4 hours later by washing the monolayer three times with complete media. Infected cells were then incubated for 72 hours before growth was quantified by luciferase expression. For time-lapse images, HFFs were seeded into 35 mm glass bottom microwell dishes (MatTek Corporation, Ashland, MA). […]
# Babesia bovis = assay: B. bovis-infected erythrocyte proliferation, SYBR green incorporation; format: cell-based; details: in Bos taurus, infected erythrocytes, 72 hours, read-out: EC50 against B. bovis
# Procedure: B. bovis and B. bigemina inhibitor response assays were adapted from components of [79–81]. B. bovis and B. bigemina parasites were maintained in bovine erythrocytes under microaerophilic stationary phase conditions in vitro as described elsewhere. Prior to use in growth studies parasites were grown in erythrocytes from which leukocytes were depleted. Cultures were set up at 0.20% parasitized erythrocytes, in quadruplicate, in complete medium supplemented with trtE. Final concentration of DMSO in all cultures was 1%, and was consistent throughout. Following 72h growth under 90% nitrogen, 5% oxygen, 5% carbon dioxide cells were harvested by thorough resuspension, and transferred to a black, opaque 96-well plate. Cells were freeze-thawed at -80°C overnight, then mixed with an equal volume of SYBR Green lysis buffer. Lysis buffer was composed of 20 mM Tris, pH 7.5, 5 mM EDTA, 0.008% (w/v) saponin, 0.08% (v/v) NP40, and contained 0.2 μl 10,000x SYBR Green I dye ml^-1 (S7563; Invitrogen; Carlsbad, CA). Plates were incubated for one hour at room temperature in the dark prior to reading in a microplate reader, at 485 nm excitation and 528 nm emission wavelengths.
# B. bovis = assay: Immunofluorescence assay of B. bovis CE11/p2xHA-glmS-gfp-bsd infected erythrocytes; format: cell-based, Babesia bovis; details: 50 nM trtE, 24 hours
# Procedure: To evaluate the morphological changes in one of the intraerythrocytic parasites, B. bovis CE11/p2xHA-glmS-gfp-bsd parasites were exposed to 50 nM trtE or DMSO for 24 hours then fixed and processed for IFA. This B. bovis line expresses a soluble green fluorescent protein-blasticidin deaminase fusion protein (gfp-bsd),that was labeled with anti-GFP antibodies to visualize the parasite cytoplasm (Fig 3E, green fluorescence). […] Mis-localization of both the soluble gfp-bsd fusion protein (green label) and the RAP-1 protein (red label) was also observed. […]
# For all IFAs, the investigator reading the slides and collecting images was blind to the sample treatment. […] 24 hours post treatment, infected cells were fixed with methanol, and parasites detected with rabbit anti-SAG1 antibody for T. gondii or rabbit anti-gp15 for C. parvum as we have described previously. […] This CE11 line is transiently transfected with a plasmid that expresses nanoluciferase from a B. divergens promoter and green fluorescence protein-blasticidin (gfp-bsd) from the selection cassette. […] Cells were incubated with rabbit anti-GFP (GenScript; Piscataway, NJ; cat. #A01388) and mouse monoclonal MBOC79B1 (a gift from G. Palmer) anti-BbRAP-1 protein antibodies, and reactions detected with goat anti-rabbit IgG-Alexafluor 488 and goat anti-mouse IgG-Alexafluor 594 antibodies (Invitrogen; Carlsbad, CA). […]
# [1] = system: HCT-8 colonic cancer cells
# Procedure: Toxicity was evaluated by measuring cellular ATP concentrations.
# HCT8, HFF and BT cells were seeded in 96-well plates to achieve 20–30% confluence after 24 hours of growth.
# Gram negative bacteria = details: at μM concentrations; cited from earlier work
# [2] = system: Toxoplasma gondii bradyzoites; assay: Very preliminary study against T. gondii bradyzoites; format: cell-based; details: close to the level of toxicity for the host cells
smiles,measurement,setting,value
"CC1CCC=CC=CCCC(O)CC(=O)CC2CCC(C)C3(O2)O[B-]24OC(C(=O)O1)C1(OC(CCC1C)CC(=O)CC(O)CCC=CC=CCCC(C)OC(=O)C3O2)O4 (stereo not shown) [trtE, tartrolon E]",Length of trtE treatment after which parasites were killed,T. gondii ME49,kills the parasites after two hours of treatment
same,EC50,Babesia bovis,0.0159 µM
same,Morphology of trtE treated B. bovis (IFA),B. bovis,distinctly rounded morphology
same,TC50 (median toxic concentration) for HCT-8,"[1]; 20–30% confluency, 24 hours, cellular ATP",6.3 µM
same,"Selectivity Index, C. parvum vs HCT-8",[1]; TC50/EC50,1636
same,Activity of trtE against Gram negative bacteria,Gram negative bacteria,active
same,Concentration at which trtE was effective against bradyzoites,[2],~ 1 µM
